Results on one molecule are retold here after US12624008B2, “4-((6-oxopyrimidin-1(6H)-yl)methyl)benzoic acid as an inducer of Z A1AT secretion for treating AATD” (CENTESSA PHARMACEUTICALS (UK) LIMITED, priority 2020, dated 2026).

For the experiment, the system named is Z A1AT. In words: Z A1AT cell secretion assay using HEK-Z cells (ELISA of supernatant). It is filed as cell-based, human. As to conditions: HEK-Z cells, 10, 33, 100 and 333 nM, 48 h, FIG. 1 y-axis in ng/ml. The protocol:
HEK-Z cells, a human embryonic kidney cell line stably transfected with the human Z AAT gene, were plated into 96 well plates (3.0×10^5 cells/ml with 200 μl of media/well) overnight at 37° C. in a humidified atmosphere containing 5% CO2. Following incubation cells were washed with 200 μl serum-free media three times and media was replaced with treatments in quadruplicate using vehicle, 10 μM suberanilohydroxamic acid (SAHA) or 4-((6-oxopyrimidin-1(6H)-yl)methyl)benzoic acid (at concentrations of 10, 33, 100 and 333 nM) for 48 h in a 37° C. incubator in a final volume of 200 μl. At the end of the incubation step the supernatants were removed from the wells, centrifuged at 1000×g at 4° C. for 10 min and were assayed for Z A1AT levels by ELISA (Human Serpin A1/α1-antitrypsin duo set ELISA, R&D Systems, DY1268) per manufacturer's instructions.
Briefly, a 96 well plate was coated with human A1AT capture antibody overnight at room temperature (1:180 dilution from stock, 100 μl final volume/well). […] After which, 50 μl stop solution (2M H2SO4) was added and optical density (OD) of each well was read at 450 nm with 570 nm blank subtracted from each well using a microplate reader. A 4 parameter logistic curve was constructed using GraphPad Prism 8 and Z A1AT concentrations were determined in each sample by interpolation from a standard curve and multiplying by the appropriate dilution factor.
For orientation: ELISA stands for enzyme-linked immunosorbent assay.

`O=C(O)c1ccc(Cn2cnccc2=O)cc1` [4-((6-oxopyrimidin-1(6H)-yl)methyl)benzoic acid]: the “secretion of Z A1AT (concentration of Z A1AT in the cell supernatant)” value is listed as “increased in a dose dependent manner”.
